Assay results taken from patent publication US12497393B2, “β-lactam compound, use thereof and preparation method therefor” (priority 2020, dated 2025).
Values after ≈ are worked out from the molar mass of the structure shown. Like-named read-outs stand apart in the source and are kept apart here.

Assays:
Assay in all cases: Antibacterial activity MIC assay (two-fold dilution agar plating)
Type in all cases: cell-based
[1] = system: Serratia marcescens; details: Serratia marcescens ATCC 21074
Method: (§1) Antibacterial Activity-Evaluating Method (MIC Assay)
(§2) In this study, the compounds of the present invention were tested for their antibacterial activities by using two-fold dilution agar plating method and Denley Multipoint Inoculator A400 according to the guidelines of the CLSI/NCCLS standard. The tested strains were amplified by hydrolyzed casein peptone (Mueller-Hinton Agar) broth and Brain and Heart Infusion. The strains used in this study were bacterial strains that were purchased from ATCC or clinically isolated in Chinese hospitals. Aztreonam, polymyxin or levofloxacin was used as positive control. The drugs were diluted with hydrolyzed casein peptone broth to the desired concentrations including 128.0, 64.0, 32.0, 16.0, 8.0, 4.0, 2.0, 1.0, 0.5, 0.25, 0.125, 0.06 and 0.03 μg/mL, and then placed respectively into each well and mixed thoroughly. After inoculation, the tested strains were incubated for 18 hours at a constant temperature of 35° C., and their growth levels were observed. The drug concentration with no microbial growth in the well was recorded as the lowest Minimal Inhibitory Concentration (MIC).

[2] = system: Stenotrophomonas maltophilia; details: Stenotrophomonas maltophilia ATCC 13636
Method: as §1, §2

[3] = system: Salmonella typhi
Method: as §1, §2

[4] = system: Proteus vulgaris
Method: as §1, §2

[5] = system: Klebsiella Pneumoniae; details: for MIC: Klebsiella pneumoniae, read-out: Minimal Inhibitory Concentration (MIC)
Method: as §1, §2

[6] = system: Enterobacter aerogenes; details: Enterobacter aerogenes ATCC 13048
Method: as §1, §2

[7] = system: Shigella flexneri; details: Shigella flexneri ATCC 12022
Method: as §1, §2

[8] = system: Providencia rettgeri
Method: as §1, §2

[9] = system: Escherichia coli; details: for MIC: Escherichia coli, read-out: Minimal Inhibitory Concentration (MIC)
Method: as §1, §2

[10] = system: Pseudomonas aeruginosa; details: for MIC: read-out: Minimal Inhibitory Concentration (MIC)
Method: as §1, §2

[11] = system: Enterobacter cloacae; details: for MIC: read-out: Minimal Inhibitory Concentration (MIC)
Method: as §1, §2

[12] = system: Proteus mirabilis
Method: as §1, §2

[13] = system: Citrobacter freundii; details: Citrobacter freundii ATCC 43864
Method: as §1, §2

[14] = system: Acinetobacter baumannii; details: for MIC: Acinetobacter baumannii, read-out: Minimal Inhibitory Concentration (MIC)
Method: as §1, §2

[15] = Klebsiella Pneumoniae 09-20, mcr-1(+)
[16] = Klebsiella Pneumoniae 16-2, ESBLs(−)
[17] = Klebsiella Pneumoniae 16-14, ESBLs(+)
[18] = Escherichia coli 08-85, mcr-1(+)
[19] = Escherichia coli 13-43, mcr-1(+)
[20] = Escherichia coli 13-66, mcr-1(+)
[21] = Escherichia coli 16-1, ESBLs(+)
[22] = Escherichia coli 16-7, ESBLs(−)
[23] = Escherichia coli 17-R28, CRE, NDM-1(+)
[24] = Escherichia coli CDC1001728, NDM-1(+)
[25] = Enterobacter cloacae CDC1000654

Compound: CC1(C)[C@H](NC(=O)/C(=N\OC2(C(=O)O)CC2)c2nsc(N)n2)C(=O)N1OS(=O)(=O)O [Compound A-6]
- Minimal Inhibitory Concentration (MIC) [1]: 1 mg/L
- Minimal Inhibitory Concentration (MIC) [2]: 32 mg/L
- Minimal Inhibitory Concentration (MIC) ([3]; Salmonella typhi H901): 0.5 mg/L
- Minimal Inhibitory Concentration (MIC) ([4]; Proteus vulgaris ATCC 29905): ≤0.03 mg/L
- Minimal Inhibitory Concentration (MIC) [5, 15]: 2 mg/L
- Minimal Inhibitory Concentration (MIC) [5, 16]: 0.5 mg/L
- Minimal Inhibitory Concentration (MIC) [5, 17]: 4 mg/L
- Minimal Inhibitory Concentration (MIC) ([5]; Klebsiella Pneumoniae ATCC 700603, ESBLs(+)): 64 mg/L
- Minimal Inhibitory Concentration (MIC) ([5]; Klebsiella Pneumoniae ATCC BAA-2146, NDM-1(+)): 32 mg/L
- Minimal Inhibitory Concentration (MIC) [6]: 1 mg/L
- Minimal Inhibitory Concentration (MIC) [7]: 0.06 mg/L
- Minimal Inhibitory Concentration (MIC) ([8]; Providencia rettgeri ATCC 31052): ≤0.03 mg/L
- Minimal Inhibitory Concentration (MIC) [9, 18]: 4 mg/L
- Minimal Inhibitory Concentration (MIC) [9, 19]: 4 mg/L
- Minimal Inhibitory Concentration (MIC) [9, 20]: 4 mg/L
- Minimal Inhibitory Concentration (MIC) [9, 21]: 0.5 mg/L
- Minimal Inhibitory Concentration (MIC) [9, 22]: 0.5 mg/L
- Minimal Inhibitory Concentration (MIC) [9, 23]: >64 mg/L
- Minimal Inhibitory Concentration (MIC) ([9]; Escherichia coli ATCC 25922, ESBLs(−)): 0.5 mg/L
- Minimal Inhibitory Concentration (MIC) ([9]; Escherichia coli ATCC 35218, ESBLs(+)): 0.25 mg/L
- Minimal Inhibitory Concentration (MIC) [9, 24]: 4 mg/L
- Minimal Inhibitory Concentration (MIC) ([10]; Pseudomonas aeruginosa 16-11): 16 mg/L
- Minimal Inhibitory Concentration (MIC) ([10]; Pseudomonas aeruginosa ATCC 27853): 16 mg/L
- Minimal Inhibitory Concentration (MIC) ([10]; Pseudomonas aeruginosa PAO1): 8 mg/L
- Minimal Inhibitory Concentration (MIC) ([11]; Enterobacter cloacae ATCC 43560): 0.5 mg/L
- Minimal Inhibitory Concentration (MIC) [11, 25]: 64 mg/L
- Minimal Inhibitory Concentration (MIC) ([12]; Proteus mirabilis ATCC 49565): 1 mg/L
- Minimal Inhibitory Concentration (MIC) [13]: 0.25 mg/L
- Minimal Inhibitory Concentration (MIC) ([14]; Acinetobacter baumannii 16-16): >64 mg/L
- Minimal Inhibitory Concentration (MIC) ([14]; Acinetobacter baumannii 16-33): 16 mg/L
- Minimal Inhibitory Concentration (MIC) ([14]; Acinetobacter baumannii ATCC 19606): 16 mg/L

Compound: CC(C)[C@H](O/N=C(\C(=O)N[C@@H]1C(=O)N(OS(=O)(=O)O)C1(C)C)c1csc(N)n1)C(=O)O [Compound A-4]
- MIC ([1]; ATCC21074, read-out: Minimal Inhibitory Concentration (MIC)): 0.25 mg/L (≈ 0.521 µM)
- MIC ([2]; ATCC13636, read-out: Minimal Inhibitory Concentration (MIC)): 8 mg/L (≈ 16.7 µM)
- MIC ([3]; Salmonella enterica, TYPHI, read-out: Minimal Inhibitory Concentration (MIC)): 0.12 mg/L (≈ 0.25 µM)
- MIC ([4]; Proteus vulgaris, ATCC29905, Proteus vulgaris ATCC 29905, read-out: Minimal Inhibitory Concentration (MIC)): ≤ 0.03 mg/L
- MIC ([5]; ATCC700603, Klebsiella Pneumoniae ATCC 700603, ESBLs(+)): 2 mg/L (≈ 4.17 µM)
- MIC ([5]; ATCCBAA2146, Klebsiella Pneumoniae ATCC BAA-2146, NDM-1(+)): 0.5 mg/L (≈ 1.04 µM)
- MIC [5, 15]: 0.12 mg/L (≈ 0.25 µM)
- MIC [5, 16]: 1 mg/L (≈ 2.09 µM)
- MIC [5, 17]: 0.25 mg/L (≈ 0.521 µM)
- MIC ([5]; Klebsiella Pneumoniae 17-R27, CRE): 0.25 mg/L (≈ 0.521 µM)
- MIC ([6]; Klebsiella aerogenes, ATCC13048, read-out: Minimal Inhibitory Concentration (MIC)): 0.5 mg/L (≈ 1.04 µM)
- MIC ([7]; ATCC12022, read-out: Minimal Inhibitory Concentration (MIC)): 0.25 mg/L (≈ 0.521 µM)
- MIC ([8]; Providencia rettgeri, ATCC31052, Providencia rettgeri ATCC 31052, read-out: Minimal Inhibitory Concentration (MIC)): ≤ 0.03 mg/L
- MIC ([9]; ATCC25922, Escherichia coli ATCC 25922, ESBLs(−)): 0.25 mg/L (≈ 0.521 µM)
- MIC ([9]; ATCC35218, Escherichia coli ATCC 35218, ESBLs(+)): 0.12 mg/L (≈ 0.25 µM)
- MIC [9, 18]: 0.25 mg/L (≈ 0.521 µM)
- MIC [9, 19]: 0.25 mg/L (≈ 0.521 µM)
- MIC [9, 20]: 0.25 mg/L (≈ 0.521 µM)
- MIC [9, 21]: 0.12 mg/L (≈ 0.25 µM)
- MIC [9, 22]: 0.25 mg/L (≈ 0.521 µM)
- MIC [9, 23]: 8 mg/L (≈ 16.7 µM)
- MIC [9, 24]: 0.5 mg/L (≈ 1.04 µM)
- MIC ([10]; ATCC27853, Pseudomonas aeruginosa ATCC 27853): 8 mg/L (≈ 16.7 µM)
- MIC ([10]; Pseudomonas aeruginosa 16-11): 8 mg/L (≈ 16.7 µM)
- MIC ([10]; Pseudomonas aeruginosa PAO1): 4 mg/L (≈ 8.34 µM)
- MIC ([11]; ATCC43560, Enterobacter cloacae ATCC 43560): 0.12 mg/L (≈ 0.25 µM)
- MIC [11, 25]: 1 mg/L (≈ 2.09 µM)
- MIC ([12]; Proteus mirabilis, ATCC49565, Proteus mirabilis ATCC 49565, read-out: Minimal Inhibitory Concentration (MIC)): ≤ 0.03 mg/L
- MIC ([13]; ATCC43864, read-out: Minimal Inhibitory Concentration (MIC)): 0.12 mg/L (≈ 0.25 µM)
- MIC ([14]; ATCC19606, Acinetobacter baumannii ATCC 19606): 64 mg/L (≈ 133 µM)
- MIC ([14]; Acinetobacter baumannii 16-16): > 64 mg/L
- MIC ([14]; Acinetobacter baumannii 16-33): 32 mg/L (≈ 66.7 µM)
